These results are taken from patent US20240360139A1, “BLOOD BRAIN BARRIER PENETRATING SELECTIVE INHIBITORS OF ROCK2 PROTEIN KINASES AND USES THEREOF” (GENOSCO Inc., priority 2023, published 2024).

The target of experiment [1] is T1, Recombinant ROCK2 (amino acids 5-554) (Homo sapiens, UniProt O75116).
T1 construct: ROCK2 (amino acids 5-554)
Briefly: ROCK inhibition assay, LANCE Ultra TR-FRET (ROCK2). In kind it is biochemical. The conditions noted are these: 1 mM of ATP. As for the experimental part: (§1) Kinase IC50 was determined through an in vitro assay based on LANCE Ultra TR-FRET (Time-Resolved Fluorescence Resonance Energy Transfer) homogeneous technologies method 5 (Perkin Elmer). Recombinant ROCK1 (amino acids 1-477) and ROCK2 (amino acids 5-554) proteins were purchased from Carna Biosciences and SignalChem. Compound activities were measured by Envision and IC50s were calculated. The assays were performed in white LUMITRAC™ 200 96 well half-area microplates from Greiner Bio-One. The kinase reaction buffer consisted of 50 mM HEPES pH 7.5, 1 mM EGTA, 10 mM MgCl2, 2 mM DTT and 0.01% 10 Tween-20. Kinases were incubated with 50 nM (ULight-CREBtide) substrate in the presence of 1 mM (ROCK1) or 1 mM (ROCK2) of ATP. The kinase reaction was carried out for 1 hour before addition of a stopping buffer to a final of 10 mM EDTA and 0.6 nM of LANCE Ultra Europium anti-phospho-CREB (Ser133) antibody (PerkinElmer TRF0200) in LANCE detection buffer. All assay incubations were performed at room temperature, and the microplates were sealed with polyester film during that time. The reaction was incubated for 1 hour, and the signal was read in Envision in TR-FRET mode (excitation at 320 nm and emission at 615/665 nm).
(§2) As used herein, a way to describe potency of inhibitory activity (nM) is a value of inhibitory activity at 50% (IC50).
A general note: Time-resolved FRET reads energy transfer from a long-lived donor to a nearby acceptor.

The target in experiment [2] is T2, Recombinant ROCK1 (amino acids 1-477) (Homo sapiens, UniProt Q13464).
T2 construct: Recombinant ROCK1 (amino acids 1-477)
T2 sequence (Q13464 1-477): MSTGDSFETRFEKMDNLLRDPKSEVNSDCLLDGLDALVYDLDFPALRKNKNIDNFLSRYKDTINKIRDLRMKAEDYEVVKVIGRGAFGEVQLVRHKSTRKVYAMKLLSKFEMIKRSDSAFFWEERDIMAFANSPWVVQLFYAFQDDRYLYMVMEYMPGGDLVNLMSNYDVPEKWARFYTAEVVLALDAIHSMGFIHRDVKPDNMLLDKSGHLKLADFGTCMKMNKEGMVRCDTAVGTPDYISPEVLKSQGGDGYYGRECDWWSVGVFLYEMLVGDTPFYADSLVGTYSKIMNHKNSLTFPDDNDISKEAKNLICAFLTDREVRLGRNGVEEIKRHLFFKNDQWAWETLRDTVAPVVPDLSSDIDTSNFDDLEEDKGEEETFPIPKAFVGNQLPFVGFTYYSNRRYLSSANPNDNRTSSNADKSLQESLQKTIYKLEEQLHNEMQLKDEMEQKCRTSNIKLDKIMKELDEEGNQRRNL
In words: ROCK inhibition assay, LANCE Ultra TR-FRET (ROCK1). The conditions noted are these: 1 mM of ATP. In kind it is biochemical. The procedure:
as §1, §2

The IC50 is the point on the concentration scale where inhibition reaches its midpoint.

Where only a bound is given, the exact number is not on record here.

T1 sequence (O75116 5-554): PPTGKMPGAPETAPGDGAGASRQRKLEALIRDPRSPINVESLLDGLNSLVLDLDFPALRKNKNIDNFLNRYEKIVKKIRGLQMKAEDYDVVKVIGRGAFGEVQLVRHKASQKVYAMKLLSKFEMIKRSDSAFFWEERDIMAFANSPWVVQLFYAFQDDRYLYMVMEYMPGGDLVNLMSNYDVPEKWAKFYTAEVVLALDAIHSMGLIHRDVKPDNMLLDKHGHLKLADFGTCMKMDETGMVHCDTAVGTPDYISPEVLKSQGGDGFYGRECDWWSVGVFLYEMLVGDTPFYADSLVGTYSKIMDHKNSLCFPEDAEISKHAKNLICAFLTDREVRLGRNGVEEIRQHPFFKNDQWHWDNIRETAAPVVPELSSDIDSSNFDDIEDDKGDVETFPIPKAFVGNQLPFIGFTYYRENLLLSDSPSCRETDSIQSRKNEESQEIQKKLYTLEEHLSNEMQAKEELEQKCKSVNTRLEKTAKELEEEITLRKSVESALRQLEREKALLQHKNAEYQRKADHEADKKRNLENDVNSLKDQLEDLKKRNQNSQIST

Turning to `COc1[nH]ncc1-c1ccc2c(C(=O)C3COc4ccc(Cl)cc4C3)cn(C[C@@H]3CCCN3C)c2c1` (stereo partly drawn) [Compound 1-29], the IC50 in experiment [1] fell in the range of 21 to 200 nM; in experiment [2] it was 201 to 500 nM.
Take `COc1[nH]ncc1-c1ccc2c(C(=O)C3COc4ccc(Cl)cc4C3)cn(CC3CCN3)c2c1` (stereo not drawn) [Compound 1-32]: the IC50 is below 20 nM in experiment [1] and above 501 nM in experiment [2].
Consider `CN(C)CCn1cc(C(=O)[C@@H]2COc3ccc(F)cc3C2)c2ccc(-c3c[nH]nc3Cl)cc21` [Compound 5-21], for which the results for the half-inhibitory concentration (IC50) in experiment [1] and in experiment [2] were below 20 nM and 201 to 500 nM, respectively.
With `CN(C)CCn1nc(C(=O)[C@@H]2COc3ccccc3O2)c2ccc(-c3cn[nH]c3)cc21` [Compound 5-44], the half-maximal inhibitory concentration (IC50) was in the range of 21 to 200 nM in experiment [1] and 201 to 500 nM in experiment [2].
Regarding `COc1n[nH]cc1-c1ccc2c(C(=O)C3CCOc4ccc(F)cc4C3)nn(CCN(C)C)c2c1` (stereo not drawn) [Compound 5-62], the IC50 in experiment [1] and in experiment [2] was above 501 nM each time.
For the compound `COc1ccc2c(c1)C[C@H](C(=O)c1cn(C[C@H]3CCN3CC(F)F)c3cc(-c4c[nH]nc4Cl)ccc13)CO2` [Compound 5-10], the results for the IC50 in experiment [1] and in experiment [2] were below 20 nM and 201 to 500 nM, respectively.
With `C[C@H](N)Cn1cc(C(=O)C2COc3ccc(Cl)cc3C2)c2ccc(-c3c[nH]nc3Cl)cc21` (stereo partly drawn) [Compound 2-7], the IC50 in experiment [1] and in experiment [2] was below 20 nM each time.
With `COc1[nH]ncc1-c1cc2c(cn1)c(C(=O)C1COc3ccc(Cl)cc3C1)cn2CCN(C)C` (stereo not drawn) [Compound 1-3, (6-chlorochroman-3-yl)(1-(2-(dimethylamino)ethyl)-6-(5-methoxy-1H-pyrazol-4-yl)-1H-pyrrolo[3,2-c]pyridin-3-yl)methanone dimethanesulfonic acid], the figures for the IC50 in experiment [1] and in experiment [2] were 21 to 200 nM and above 501 nM, respectively.
The matching figures for `COc1ccc2c(c1)CC(C(=O)c1cn(C[C@@H]3CCN3C)c3cc(-c4cn[nH]c4F)ccc13)CO2` (stereo partly drawn) [Compound 1-48]: 21 to 200 nM and above 501 nM.
Take `CN(C)CCn1cc(C(=O)C2COc3ccc(Cl)cc3C2)c2cnc(-c3cn[nH]c3Cl)nc21` (stereo not drawn) [Compound 1-33]: the IC50 in experiment [1] and in experiment [2] was above 501 nM in each case.
Take `COc1n[nH]cc1-c1ccc2c(C(=O)[C@H]3COc4ccc(Cl)cc4C3)cn(CCCN(C)C)c2c1` [Compound 3-8]: the IC50 in experiment [1] is 201 to 500 nM; in experiment [2], above 501 nM.
Taken in the same sequence, the figures for `CN(C)CCn1nc(C(=O)C2COc3ccc(Cl)cc3O2)c2ccc(-c3c[nH]nc3F)cc21` (stereo not drawn) [Compound 5-60] were 21 to 200 nM and above 501 nM.
The matching figures for `CCN(CCn1cc(C(=O)[C@@H]2COc3ccc(OC)cc3C2)c2ccc(-c3c[nH]nc3Cl)cc21)CC(F)(F)F` [Compound 5-14]: 21 to 200 nM and above 501 nM.
Taken in the same sequence, the figures for `COc1ccc2c(c1)CC(C(=O)c1nn(CCN(C)C)c3cc(-c4c[nH]nc4Cl)ccc13)CO2` (stereo not drawn) [Compound 5-50] were below 20 nM and 21 to 200 nM.
Consider `COc1[nH]ncc1-c1ccc2c(C(=O)C3COc4ccc(Cl)cc4C3)cn(CC3CCCN3C)c2c1` (stereo not drawn) [Compound 1-19], for which the IC50 in experiment [1] is 21 to 200 nM; in experiment [2], above 501 nM.
In the case of `CN(C)CCn1cc(C(=O)C2COc3ccc(F)cc3C2)c2cnc(-c3c[nH]nc3Cl)cc21` (stereo not drawn) [Compound 1-12], the results for the IC50 in experiment [1] and in experiment [2] were 201 to 500 nM and above 501 nM, respectively.
On to `COc1ccc2c(c1)CC(C(=O)c1cn(C[C@@H]3CCN3)c3cc(-c4cn[nH]c4F)ccc13)CO2` (stereo partly drawn) [Compound 1-37], for which the results for the half-maximal inhibitory concentration (IC50) in experiment [1] and in experiment [2] were below 20 nM and above 501 nM, respectively.
For `COc1ccc2c(c1)CC(C(=O)c1cn(CCN(C)C)c3cc(-c4cn[nH]c4OC)ccc13)CO2` (stereo not drawn) [Compound 5-41], the half-maximal inhibitory concentration (IC50) in experiment [1] lay within 21 to 200 nM; in experiment [2] it was 201 to 500 nM.
`CC(N)Cn1cc(C(=O)C2COc3ccc(F)cc3C2)c2cnc(-c3c[nH]nc3Cl)cc21` (stereo not drawn) [Compound 2-2]: the figures for the 50% inhibitory concentration (IC50) in experiment [1] and in experiment [2] were below 20 nM and 21 to 200 nM, respectively.
As for `CCN(CC)CCn1cc(C(=O)C2COc3ccc(Cl)cc3C2)c2ccc(-c3cn[nH]c3Cl)cc21` (stereo not drawn) [Compound 3-12], the IC50 was 21 to 200 nM in experiment [1] and above 501 nM in experiment [2].
For `NC1(Cn2cc(C(=O)C3COc4ccc(F)cc4C3)c3ccc(-c4cn[nH]c4Cl)cc32)CC1` (stereo not drawn) [Compound 4-4], the IC50 in experiment [1] was below 20 nM; in experiment [2], 21 to 200 nM.
The matching figures for `C[C@H](N)Cn1cc(C(=O)C2COc3ccc(Cl)cc3C2)c2ccc(-c3cn[nH]c3F)cc21` (stereo partly drawn) [Compound 2-8]: above 501 nM and above 501 nM.
Turning to `COc1[nH]ncc1-c1ccc2c(C(=O)C3COc4ccc(Cl)cc4O3)cn(CCN(C)C)c2c1` (stereo not drawn) [Compound 5-42], the 50% inhibitory concentration (IC50) in experiment [1] was 201 to 500 nM; in experiment [2] it was above 501 nM.
Consider `CCN(CC)CCn1cc(C(=O)C2COc3ccc(Cl)cc3C2)c2ccc(-c3cn[nH]c3OC)cc21` (stereo not drawn) [Compound 3-13], for which the IC50 in experiment [1] is below 20 nM; in experiment [2] it was above 501 nM.
On to `COc1ccc2c(c1)C[C@H](C(=O)c1cn(C[C@@H]3CCN3C)c3cc(-c4cn[nH]c4Cl)ncc13)CO2` [Compound 1-4], for which the figures for the IC50 in experiment [1] and in experiment [2] were below 20 nM and above 501 nM, respectively.
Taken in the same sequence, the figures for `COc1[nH]ncc1-c1ccc2c(C(=O)[C@H]3COc4ccc(F)cc4C3)cn(CCN(C)C)c2c1` [Compound 5-40] were 201 to 500 nM and above 501 nM.
Take `CCN(CCn1cc(C(=O)[C@@H]2COc3ccc(OC)cc3C2)c2ccc(-c3c[nH]nc3Cl)cc21)CC(F)F` [Compound 5-13]: the IC50 in experiment [1] is below 20 nM; in experiment [2] it was 201 to 500 nM.
In the case of `COc1n[nH]cc1-c1ccc2c(C(=O)C3COc4ccc(F)cc4C3)nn(CCN(C)C)c2c1` (stereo not drawn) [Compound 5-51], the figures for the IC50 in experiment [1] and in experiment [2] were 21 to 200 nM and above 501 nM, respectively.
Take `CCN1CC[C@@H]1Cn1cc(C(=O)C2COc3ccc(OC)cc3C2)c2ccc(-c3cn[nH]c3OC)cc21` (stereo partly drawn) [Compound 1-56]: the IC50 is 21 to 200 nM in experiment [1] and above 501 nM in experiment [2].
For the compound `CNCCn1cc(C(=O)C2COc3ccc(F)cc3C2)c2ccc(-c3c[nH]nc3Cl)nc21` (stereo not drawn) [Compound 3-3], the IC50 in experiment [1] was 21 to 200 nM; in experiment [2] it was above 501 nM.
With `CN(C)CCn1cc(C(=O)C2COc3ccc(Cl)cc3C2)c2ccc(-c3c[nH]nc3Cl)nc21` (stereo not drawn) [Compound 1-9], the IC50 was in the range of 21 to 200 nM in experiment [1] and 201 to 500 nM in experiment [2].
`O=C(c1cn(CC2CCN2)c2cc(-c3cn[nH]c3F)ccc12)C1COc2ccc(Cl)cc2C1` (stereo not drawn) [Compound 1-30]: the IC50 was below 20 nM in experiment [1] and above 501 nM in experiment [2].
On to `CN1CCCC1Cn1cc(C(=O)C2COc3ccc(Cl)cc3C2)c2ccc(-c3cn[nH]c3F)cc21` (stereo not drawn) [Compound 1-27], for which the IC50 in experiment [1] and in experiment [2] was 201 to 500 nM throughout.
With `CCN(C)CCn1cc(C(=O)[C@@H]2COc3ccc(OC)cc3C2)c2ccc(-c3cn[nH]c3Cl)cc21` [Compound 3-28], the results for the IC50 in experiment [1] and in experiment [2] were 21 to 200 nM and above 501 nM, respectively.
Regarding `CN(C)CCn1cc(C(=O)[C@@H]2COc3ccc(Cl)cc3C2)c2ccc(-c3cn[nH]c3F)cc21` [Compound 1-26], the results for the IC50 in experiment [1] and in experiment [2] were below 20 nM and 201 to 500 nM, respectively.
Take `COc1n[nH]cc1-c1ccc2c(C(=O)[C@H]3COc4ccc(Cl)cc4C3)nn(CCN(C)C)c2c1` [Compound 5-47]: the 50% inhibitory concentration (IC50) was 21 to 200 nM in experiment [1] and above 501 nM in experiment [2].
Take `COc1[nH]ncc1-c1ccc2c(C(=O)C3COc4ccc(Cl)cc4C3)cn(C3CNC3)c2c1` (stereo not drawn) [Compound 1-18]: the IC50 in experiment [1] is 21 to 200 nM; in experiment [2], above 501 nM.
Turning to `COc1ccc2c(c1)C[C@H](C(=O)c1cn(CCN(C)C)c3cc(-c4c[nH]nc4Cl)ccc13)CO2` [Compound 5-4], the 50% inhibitory concentration (IC50) was below 20 nM in experiment [1] and above 501 nM in experiment [2].
In the case of `COc1[nH]ncc1-c1ccc2c(C(=O)C3COc4ccc(Cl)cc4C3)cn(C[C@H]3CCCN3C)c2c1` (stereo partly drawn) [Compound 1-28], the IC50 in experiment [1] and in experiment [2] was above 501 nM each time.
Turning to `COc1[nH]ncc1-c1ccc2c(C(=O)[C@@H]3COc4ccc(Cl)cc4C3)cn(CCN(C)C)c2c1` [Compound 5-30], the IC50 is below 20 nM in experiment [1] and 201 to 500 nM in experiment [2].
As for `CCN(C)CCn1cc(C(=O)C2COc3ccc(OC)cc3C2)c2ccc(-c3cn[nH]c3Cl)cc21` (stereo not drawn) [Compound 3-25], the IC50 in experiment [1] was below 20 nM; in experiment [2], 201 to 500 nM.
Take `O=C(c1cn(CCN2CCC2)c2nc(-c3c[nH]nc3Cl)ccc12)C1COc2ccc(F)cc2C1` (stereo not drawn) [Compound 3-1, [1-[2-(azetidin-1-yl)ethyl]-6-(3-chloro-1H-pyrazol-4-yl)pyrrolo[2,3-b]pyridin-3-yl]-(6-fluorochroman-3-yl)methanone]: the IC50 in experiment [1] is below 20 nM; in experiment [2], above 501 nM.
With `CCN(C)CCn1cc(C(=O)C2COc3ccc(Cl)cc3C2)c2ccc(-c3cn[nH]c3Cl)cc21` (stereo not drawn) [Compound 3-10], the IC50 in experiment [1] was 21 to 200 nM; in experiment [2], above 501 nM.
In the case of `COc1[nH]ncc1-c1ccc2c(C(=O)[C@@H]3COc4ccc(F)cc4C3)cn(CCN(C)C)c2c1` [Compound 5-39], in experiment [2], the IC50 was above 501 nM.
